# In patent publication US7531646B2, “β-D-ribosidase activity indicators with a chromogenic substrate” (priority 2001, dated 2009):
# Counter-ions that a name gives are not always drawn.
# Assays:
# Type in all cases: cell-based
# [1] = system: Streptococcus oralis; experiment: Substrate hydrolysis on Columbia agar; details: Streptococcus oralis NCTC11427; 300 mg/l; 18 hours
# [2] = system: Streptococcus crista; experiment: Substrate hydrolysis on Columbia agar; details: Streptococcus crista NCTC 12479; 300 mg/l; 18 hours
# [3] = system: Haemolytic streptococcus A; experiment: Substrate hydrolysis on Columbia agar; details: 300 mg/l, 18 hours
# [4] = system: Vibrio fluvialis; experiment: Substrate hydrolysis on Columbia agar; parameters: key to the marks not given beside the values; details: Vibrio fluvialis NCTC 11327; 300 mg/l; 18 hours
# [5] = system: Gram negative bacteria; experiment: Substrate hydrolysis on Columbia agar, summary of screen
# [6] = system: M. morganii; experiment: Substrate hydrolysis on Columbia agar; details: 300 mg/l, 18 hours
# [7] = system: Bacillus cereus; experiment: Substrate hydrolysis on Columbia agar; details: Bacillus cereus NCTC; 300 mg/l; 18 hours
# [8] = system: Providencia alcalifaciens; experiment: Substrate hydrolysis on Columbia agar; details: 300 mg/l, 18 hours
# [9] = system: Enterococcus faecalis; experiment: Substrate hydrolysis on Columbia agar; details: 300 mg/l, 18 hours
# [10] = system: Staphylococcus haemolyticus; experiment: Substrate hydrolysis on Columbia agar; details: 300 mg/l, 18 hours
# [11] = system: Y. enterocolitica; experiment: Substrate hydrolysis on Columbia agar; details: 300 mg/l, 18 hours
# [12] = system: Streptococcus agalactiae; experiment: Substrate hydrolysis on Columbia agar; details: Streptococcus agalactiae NCTC 8181; 300 mg/l; 18 hours
# [13] = system: E. coli 0157; experiment: Substrate hydrolysis on Columbia agar; details: 300 mg/l, 18 hours
# [14] = system: Streptococcus milleri; experiment: Substrate hydrolysis on Columbia agar; details: Streptococcus milleri wild; 300 mg/l; 18 hours
# [15] = system: Gram positive bacteria; experiment: Substrate hydrolysis on Columbia agar, summary of screen; details: of 74 Gram positive bacteria tested; 300 mg/l; 18 hours
# [16] = system: Vibrio cincinnatiensis; experiment: Substrate hydrolysis on Columbia agar; details: Vibrio cincinnatiensis NCTC 12012; 300 mg/l; 18 hours
# [17] = system: Enterococcus mundtii; experiment: Substrate hydrolysis on Columbia agar; details: Enterococcus mundtii NCTC 12363; 300 mg/l; 18 hours
# [18] = system: Salmonella typhimurium; experiment: Substrate hydrolysis on Columbia agar; details: Salmonella typhimurium NCTC 74; 300 mg/l; 18 hours
# [19] = system: Staphylococcus epidermidis; experiment: Substrate hydrolysis on Columbia agar; details: 300 mg/l, 18 hours
# [20] = system: Serratia spp.; experiment: Substrate hydrolysis on Columbia agar; details: 300 mg/l, 18 hours
# [21] = system: C. diversus; experiment: Substrate hydrolysis on Columbia agar; details: 300 mg/l, 18 hours
# [22] = system: Enterococcus raffinosis; experiment: Substrate hydrolysis on Columbia agar; details: Enterococcus raffinosis NCTC 13192; 300 mg/l; 18 hours
# [23] = system: Streptococcus sanguis; experiment: Substrate hydrolysis on Columbia agar; details: Streptococcus sanguis NCTC 7863; 300 mg/l; 18 hours
# [24] = system: Vibrio cholerae; experiment: Substrate hydrolysis on Columbia agar; details: 300 mg/l, 18 hours
# [25] = system: P. aeruginosa; experiment: Substrate hydrolysis on Columbia agar; details: 300 mg/l, 18 hours
# [26] = system: Hafnia alvei; experiment: Substrate hydrolysis on Columbia agar; details: 300 mg/l, 18 hours
# [27] = system: Providencia stuartii; experiment: Substrate hydrolysis on Columbia agar; details: 300 mg/l, 18 hours
# [28] = system: Arcanobacterium haemolyticus; experiment: Substrate hydrolysis on Columbia agar; details: Arcanobacterium haemolyticus NCTC 52; 300 mg/l; 18 hours
# [29] = system: E. aerogenes; experiment: Substrate hydrolysis on Columbia agar; details: 300 mg/l, 18 hours
# [30] = system: Vibrio alcaligenes; experiment: Substrate hydrolysis on Columbia agar; details: Vibrio alcaligenes NCTC 12160; 300 mg/l; 18 hours
smiles,measurement,setting,value
"O=c1cc(-c2ccc(OC3OC(CO)C(O)C3O)c(O)c2)oc2ccccc12 [DHF-riboside, 3′,4′-dihydroxyflavone-4′-β-D-ribofuranoside Sodium Salt]",Hydrolysis by Gram positive organisms,[1],−
same,Hydrolysis by Gram positive organisms,[2],−
same,Hydrolysis by Gram positive organisms,[3]; Haemolytic streptococcus A 1,−
same,Hydrolysis by Gram positive organisms,[3]; Haemolytic streptococcus A 2,−
same,Hydrolysis by Gram positive organisms,[3]; Haemolytic streptococcus A 3,−
same,Hydrolysis by Gram negative bacteria,[4],++
same,Gram negative bacteria tested that hydrolysed the substrate,"[5]; of 120 Gram negative bacteria tested, 300 mg/l, 18 hours",68.3%
same,colouration and diffusion of positive strains,"[5]; positive Gram negative strains, agar",clearly visible black chelate which remained restricted to bacterial colonies without diffusion into the surrounding agar
same,Hydrolysis by Gram negative bacteria,[6]; M. morganii MMO 1,+
same,Hydrolysis by Gram negative bacteria,[6]; M. morganii MMO 2,+
same,Hydrolysis by Gram negative bacteria,[6]; M. morganii NCTC 235,−
same,Hydrolysis by Gram positive organisms,[7],−
same,Hydrolysis by Gram negative bacteria,[8]; Providencia alcalifaciens PAL 1,+
same,Hydrolysis by Gram negative bacteria,[8]; Providencia alcalifaciens PAL 2,−
same,Hydrolysis by Gram positive organisms,[9]; Enterococcus faecalis 1,−
same,Hydrolysis by Gram positive organisms,[9]; Enterococcus faecalis 2,+
same,Hydrolysis by Gram positive organisms,[9]; Enterococcus faecalis 3,+
same,Hydrolysis by Gram positive organisms,[9]; Enterococcus faecalis 4,+
same,Hydrolysis by Gram positive organisms,[9]; Enterococcus faecalis 5,+
same,Hydrolysis by Gram positive organisms,[9]; Enterococcus faecalis 6,+
same,Hydrolysis by Gram positive organisms,[9]; Enterococcus faecalis 7,−
same,Hydrolysis by Gram positive organisms,[10]; Staphylococcus haemolyticus RB 66,+
same,Hydrolysis by Gram positive organisms,[10]; Staphylococcus haemolyticus RB 67,+
same,Hydrolysis by Gram positive organisms,[10]; Staphylococcus haemolyticus RB 68,+
same,Hydrolysis by Gram positive organisms,[10]; Staphylococcus haemolyticus RB 69,+
same,Hydrolysis by Gram positive organisms,[10]; Staphylococcus haemolyticus RB 70,+
same,Hydrolysis by Gram negative bacteria,[11]; Y. enterocolitica NCTC 10460,−
same,Hydrolysis by Gram negative bacteria,[11]; Y. enterocolitica NCTC 11176,−
same,Hydrolysis by Gram negative bacteria,[11]; Y. enterocolitica NCTC 11177,−
same,Hydrolysis by Gram negative bacteria,[11]; Y. enterocolitica NCTC 11600,−
same,Hydrolysis by Gram positive organisms,[12],−
same,Hydrolysis by Gram negative bacteria,[13]; E. coli 0157 NCTC 12079,++
same,Hydrolysis by Gram negative bacteria,[13]; E. coli 0157 NCTC 12080,++
same,Hydrolysis by Gram negative bacteria,[13]; E. coli 0157 NCTC 12900,++
same,Hydrolysis by Gram negative bacteria,[13]; E. coli 0157 NCTC 13125,++
same,Hydrolysis by Gram negative bacteria,[13]; E. coli 0157 NCTC 13126,++
same,Hydrolysis by Gram negative bacteria,[13]; E. coli 0157 NCTC 13127,++
same,Hydrolysis by Gram negative bacteria,[13]; E. coli 0157 NCTC 13128,++
same,Hydrolysis by Gram positive organisms,[14],−
same,Gram positive bacteria tested that hydrolysed the substrate,[15],30.8%
same,Hydrolysis by Gram negative bacteria,[16],−
same,Hydrolysis by Gram positive organisms,[17],+
same,Hydrolysis by Gram negative bacteria,[18],++
same,Hydrolysis by Gram positive organisms,[19]; Staphylococcus epidermidis RB60,++
same,Hydrolysis by Gram positive organisms,[19]; Staphylococcus epidermidis RB62,+
same,Hydrolysis by Gram positive organisms,[19]; Staphylococcus epidermidis RB63,+
same,Hydrolysis by Gram positive organisms,[19]; Staphylococcus epidermidis RB64,+
same,Hydrolysis by Gram positive organisms,[19]; Staphylococcus epidermidis RB65,+
same,Hydrolysis by Gram negative bacteria,[20]; Serratia spp. SEX 1,++
same,Hydrolysis by Gram negative bacteria,[20]; Serratia spp. SEX 2,++
same,Hydrolysis by Gram negative bacteria,[20]; Serratia spp. SEX 3,++
same,Hydrolysis by Gram negative bacteria,[20]; Serratia spp. SEX 4,++
same,Hydrolysis by Gram negative bacteria,[21]; C. diversus CDI 1,++
same,Hydrolysis by Gram negative bacteria,[21]; C. diversus CDI 2,++
same,Hydrolysis by Gram positive organisms,[22],+
same,Hydrolysis by Gram positive organisms,[23],−
same,Hydrolysis by Gram negative bacteria,[24]; Vibrio cholera NCTC 6585,−
same,Hydrolysis by Gram negative bacteria,[24]; Vibrio cholera NCTC 7270,−
same,Hydrolysis by Gram negative bacteria,[24]; Vibrio cholera NCTC 8021,−
same,Hydrolysis by Gram negative bacteria,[24]; Vibrio cholera NCTC 10732,−
same,Hydrolysis by Gram negative bacteria,[24]; Vibrio cholera NCTC 12945,−
same,Hydrolysis by Gram negative bacteria,[24]; Vibrio cholerae NCTC 7254,−
same,Hydrolysis by Gram negative bacteria,[24]; Vibrio cholerae NCTC 8042,−
same,Hydrolysis by Gram negative bacteria,[24]; Vibrio cholerae NCTC 10255,−
same,Hydrolysis by Gram negative bacteria,[24]; Vibrio cholerae NCTC 10954,−
same,Hydrolysis by Gram negative bacteria,[25]; P. aeruginosa ATCC 10145,+
same,Hydrolysis by Gram negative bacteria,[25]; P. aeruginosa NCTC 10662,+
same,Hydrolysis by Gram negative bacteria,[26]; Hafnia alvei HAL 2,++
same,Hydrolysis by Gram negative bacteria,[26]; Hafnia alvei NCTC 8105,++
same,Hydrolysis by Gram negative bacteria,[27]; Providencia stuartii PST 1,+
same,Hydrolysis by Gram negative bacteria,[27]; Providencia stuartii PST 2,+
same,Hydrolysis by Gram positive organisms,[28],+
same,Hydrolysis by Gram negative bacteria,[29]; E. aerogenes EAE 1,++
same,Hydrolysis by Gram negative bacteria,[29]; E. aerogenes NCIMB 10102,++
same,Hydrolysis by Gram negative bacteria,[30],−
